Laboratory results: patent publication US20260184708A1, “PYRIDAZINONES AND METHODS OF USE THEREOF” (GFB (ABC), LLC, priority 2017, published 2026)
pIC50: −log10 of the molar value. Like-named read-outs stand apart in the source and are kept apart here.

Biological target: T1, TRPC5 (Homo sapiens, UniProt Q9UL62)
T1 construct: expressed in transfected cells; host or cells: HEK 293
T1 sequence (Q9UL62 1-973): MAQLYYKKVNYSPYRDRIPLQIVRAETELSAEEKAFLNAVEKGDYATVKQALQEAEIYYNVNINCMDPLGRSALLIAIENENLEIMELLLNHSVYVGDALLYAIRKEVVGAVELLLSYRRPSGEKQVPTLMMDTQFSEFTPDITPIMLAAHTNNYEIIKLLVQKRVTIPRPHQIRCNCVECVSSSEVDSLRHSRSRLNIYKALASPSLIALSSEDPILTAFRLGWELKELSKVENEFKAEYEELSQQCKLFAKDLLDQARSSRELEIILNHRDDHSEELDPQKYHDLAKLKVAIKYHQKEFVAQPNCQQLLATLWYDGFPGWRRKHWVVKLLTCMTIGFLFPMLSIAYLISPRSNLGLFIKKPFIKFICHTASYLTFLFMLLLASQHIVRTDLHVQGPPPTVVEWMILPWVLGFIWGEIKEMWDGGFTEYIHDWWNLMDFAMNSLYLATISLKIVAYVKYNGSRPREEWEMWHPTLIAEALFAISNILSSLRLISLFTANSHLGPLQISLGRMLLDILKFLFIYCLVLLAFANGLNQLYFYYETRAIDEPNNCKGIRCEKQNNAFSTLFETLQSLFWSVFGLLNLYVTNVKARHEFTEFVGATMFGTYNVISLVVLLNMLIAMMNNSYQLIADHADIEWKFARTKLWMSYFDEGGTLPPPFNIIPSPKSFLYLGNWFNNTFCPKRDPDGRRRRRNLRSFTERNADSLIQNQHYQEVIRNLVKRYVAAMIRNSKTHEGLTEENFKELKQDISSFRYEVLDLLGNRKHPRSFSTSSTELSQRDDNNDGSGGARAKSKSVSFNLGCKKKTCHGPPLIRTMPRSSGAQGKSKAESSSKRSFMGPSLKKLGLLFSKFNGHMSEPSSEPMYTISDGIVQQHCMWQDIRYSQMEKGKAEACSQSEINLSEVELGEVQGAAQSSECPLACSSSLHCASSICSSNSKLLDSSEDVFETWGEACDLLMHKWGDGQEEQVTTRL
Assay: TRPC5 automated patch clamp assay (Qpatch), current block after rosiglitazone stimulation
Format: cell-based
Details: HEK293 cells overexpressing TRPC5, rosiglitazone stimulation
Summary of the method: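 HEK 293 cells expressing human TRPC5, whole-cell QPatch recording; 1 μM buffered free internal Ca2+, external pH 7.4. Ramps −100 to +100 mV over 300 ms every 10 s from −60 mV holding; channel activated by Rosiglitazone (30 uM) after ≥60 s control. IC50 from Hill fit.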

[1] = Table 5, 80 mV, read-out: TRPC5_QP_ XC50_80
[2] = Table 5, 100 mV, read-out: TRPC5_QP_ XC50_100
[3] = 80 mV, read-out: TRPC5_QP XC50_80
[4] = 100 mV, read-out: TRPC5_QP XC50_100
[5] = Table 4, 80 mV, read-out: TRPC5_QP_ XC50_80
[6] = Table 4, 100 mV, read-out: TRPC5_QP_ XC50_100
[7] = Table 3, 80 mV, read-out: TRPC5_QP_ XC50_80
[8] = Table 3, 100 mV, read-out: TRPC5_QP_ XC50_100

What does the source list for `Cc1n[nH]c(=O)c(N2CCN(Cc3ccc(F)cc3C(F)(F)F)C(=O)C2)c1Cl`?
pIC50 [1]: 3.30 to 5.00; pIC50 [2]: 3.30 to 5.00

With `Cc1cc(C(F)(F)F)ccc1CN1CCN(c2cn[nH]c(=O)c2Cl)CC1=O` as the compound, how does the pIC50 [1] read?
Its pIC50 is 5.30 to 6.00.

What about the pIC50 [2] of the same compound?
The pIC50 was 3.30 to 5.00.

With `O=c1[nH]ncc(N2CCC(Cc3ccccc3)CC2)c1Br` as the compound, how does the pIC50 [3] read?
Its pIC50 is 3.30 to 5.00.

And the pIC50 [4]?
Its pIC50 is 3.30 to 5.00.

`O=C1CN(c2cn[nH]c(=O)c2Cl)CCN1Cc1cccc2[nH]ncc12` was tested. Which pIC50 [1] did it give?
The pIC50 was 3.30 to 5.00.

And the pIC50 [2]?
Its pIC50 is 3.30 to 5.00.

`Cc1ccccc1CN1CCN(c2ccn[nH]c2=O)CC1=O` was tested. Which pIC50 [1] did it give?
The pIC50 was 3.30 to 5.00.

What about the pIC50 [2] of the same compound?
The pIC50 was 3.30 to 5.00.

`Cc1cc(F)ccc1CN1CCN(c2c(C)cn[nH]c2=O)CC1` was tested. Which pIC50 [1] did it give?
The pIC50 was 5.30 to 6.00.

And the pIC50 [2]?
Its pIC50 is 5.30 to 6.00.

With `Cc1ccccc1CN1CCN(c2c(Cl)cn[nH]c2=O)CC1=O` as the compound, how does the pIC50 [1] read?
The pIC50 was 3.30 to 5.00.

And the pIC50 [2]?
The pIC50 was 3.30 to 5.00.

How did the pIC50 [3] turn out when `Cc1ccccc1CN1CCCN(c2cn[nH]c(=O)c2Br)CC1` was run?
Its pIC50 is 5.00 to 5.30.

What about the pIC50 [4] of the same compound?
Its pIC50 is 5.00 to 5.30.

`O=C1CN(c2cn[nH]c(=O)c2Cl)CCN1Cc1ccccc1-c1ccccc1` was tested. Which pIC50 [5] did it give?
Its pIC50 is 5.30 to 6.00.

And the pIC50 [6]?
Its pIC50 is 5.30 to 6.00.

`O=C1CN(c2cn[nH]c(=O)c2Cl)CCN1C1(c2ccccc2)CC1` was tested. Which pIC50 [1] did it give?
Its pIC50 is 5.30 to 6.00.

And the pIC50 [2]?
The pIC50 was 5.30 to 6.00.

With `Cc1ccccc1CN1CCN(c2cn[nH]c(=O)c2-c2ccccn2)CC1=O` as the compound, how does the pIC50 [7] read?
The pIC50 was 3.30 to 5.00.

And the pIC50 [8]?
The pIC50 was 3.30 to 5.00.

How did the pIC50 [5] turn out when `Cc1cc(F)ccc1CN1CCN(c2n[nH]c(=O)cc2C)CC1` was run?
The pIC50 was 3.30 to 5.00.

What about the pIC50 [6] of the same compound?
The pIC50 was 3.30 to 5.00.

With `Cc1ccccc1CN1CCN(c2cn[nH]c(=O)c2Br)CC12CC2` as the compound, how does the pIC50 [3] read?
The pIC50 was 3.30 to 5.00.

What about the pIC50 [4] of the same compound?
Its pIC50 is 3.30 to 5.00.

With `O=C1CN(c2cnnc(Br)c2Cl)CCN1Cc1ccc(F)cc1C(F)(F)F` as the compound, how does the pIC50 [5] read?
The pIC50 was 3.30 to 5.00.

And the pIC50 [6]?
The pIC50 was 3.30 to 5.00.

How did the pIC50 [7] turn out when `O=c1[nH]ncc(N2CCCNCC2)c1Br` was run?
The pIC50 was 3.30 to 5.00.

And the pIC50 [8]?
Its pIC50 is 3.30 to 5.00.

Which results are given for `Cc1ccccc1CN1CCN(c2cn[nH]c(=O)c2-c2ccccc2)CC1`?
pIC50 [7]: 5.00 to 5.30; pIC50 [8]: 5.00 to 5.30

With `Cc1ccccc1CN1CCN(c2cn[nH]c(=O)c2CCC(C)C)CC1=O` [drawing 700] as the compound, how does the pIC50 [5] read?
Its pIC50 is 3.30 to 5.00.

What about the pIC50 [6] of the same compound?
Its pIC50 is 3.30 to 5.00.

How did the pIC50 [1] turn out when `O=C1CN(c2c(Cl)cn[nH]c2=O)CCN1Cc1ccc(OC(F)(F)F)cc1` was run?
Its pIC50 is 3.30 to 5.00.

And the pIC50 [2]?
Its pIC50 is 3.30 to 5.00.

With `CCS(=O)(=O)c1c(N2CCN(Cc3ccccc3C)C(=O)C2)cn[nH]c1=O` as the compound, how does the pIC50 [7] read?
The pIC50 was 3.30 to 5.00.

And the pIC50 [8]?
The pIC50 was 3.30 to 5.00.

With `O=C1CN(c2cn[nH]c(=O)c2Cl)CCN1Cc1cccc2ccccc12` as the compound, how does the pIC50 [5] read?
Its pIC50 is 6.00 to 11.00.

What about the pIC50 [6] of the same compound?
The pIC50 was 6.00 to 11.00.

With `Cc1ccccc1C(C)N1CCN(c2cn[nH]c(=O)c2Br)CC1` (stereo not shown) as the compound, how does the pIC50 [7] read?
Its pIC50 is 5.30 to 6.00.

And the pIC50 [8]?
The pIC50 was 5.30 to 6.00.

Which results are given for `CCCOc1n[nH]c(=O)cc1N1CCN(Cc2ccc(F)cc2C)CC1`?
pIC50 [1]: 3.30 to 5.00; pIC50 [2]: 3.30 to 5.00

How did the pIC50 [5] turn out when `Cc1ccccc1CN1CCN(c2cn[nH]c(=O)c2C2CCOCC2)CC1=O` was run?
The pIC50 was 3.30 to 5.00.

What about the pIC50 [6] of the same compound?
The pIC50 was 3.30 to 5.00.

What does the source list for `O=C1CN(c2cn[nH]c(=O)c2Cl)CCN1Cc1ccccc1C(F)(F)F`?
pIC50 [7]: 6.00 to 11.00; pIC50 [8]: 6.00 to 11.00

With `Cc1n[nH]c(=O)c(Cl)c1N1CCN(Cc2ccccc2C(F)(F)F)C(=O)C1` as the compound, how does the pIC50 [1] read?
The pIC50 was 5.00 to 5.30.

And the pIC50 [2]?
The pIC50 was 5.00 to 5.30.

What does the source list for `Cc1cc(N2CCN(Cc3ccc(F)cc3C)C(=O)C2)c(=O)[nH]n1`?
pIC50 [1]: 3.30 to 5.00; pIC50 [2]: 3.30 to 5.00
